Reference: patent publication US20060189650A1, “Novel piperidine derivatives as modulators of chemokine receptor ccr5” (priority 2002, published 2006)

These compounds were tested against recombinant human CCR5 receptor (Homo sapiens, UniProt P51681) (assay: MIP-1α radioligand binding assay (scintillation proximity, CHO cell membranes)). Details: negative log (base 10) of IC50, displacement of 0.1 nM iodinated MIP-1α; average if tested more than once.
Description: The ability of compounds to inhibit the binding of MIP-1α was assessed by an in vitro radioligand binding assay. Membranes were prepared from Chinese hamster ovary cells which expressed the recombinant human CCR5 receptor. These membranes were incubated with 0.1 nM iodinated MIP-1α, scintillation proximity beads and various concentrations of the compounds of the invention in 96-well plates. The amount of iodinated MIP-1α bound to the receptor was determined by scintillation counting. Competition curves were obtained for compounds and the concentration of compound which displaced 50% of bound iodinated MIP-1α was calculated (IC50).
In Table XV the results are presented as Pic50 values. A Pic50 value is the negative log (to base 10) of the IC50 result, so an IC50 of 1 μM (that is 1×10^−6M) gives a Pic50 of 6. If a compound was tested more than once then the data below is an average of the probative tests results.

Chain of recombinant human CCR5 receptor (P51681 whole entry): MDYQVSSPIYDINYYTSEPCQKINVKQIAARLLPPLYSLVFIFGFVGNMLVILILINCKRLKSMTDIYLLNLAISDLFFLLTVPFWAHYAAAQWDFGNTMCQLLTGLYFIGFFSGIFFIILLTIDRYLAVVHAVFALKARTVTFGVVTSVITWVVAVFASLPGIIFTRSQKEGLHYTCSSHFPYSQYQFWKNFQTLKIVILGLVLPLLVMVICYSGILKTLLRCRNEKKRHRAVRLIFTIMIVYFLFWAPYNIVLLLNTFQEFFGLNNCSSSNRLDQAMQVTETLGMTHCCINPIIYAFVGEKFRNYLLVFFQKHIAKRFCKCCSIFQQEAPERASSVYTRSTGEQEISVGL

IC50	SMILES
1.58 nM	CS(=O)(=O)c1ccc(S(=O)(=O)CCC2CCN(CC[C@H](NC(=O)c3ccc(Cl)cc3)c3ccccc3)CC2)cc1 [Table IV Compound 2]
0.631 nM	CS(=O)(=O)c1ccc([C@@H](CCN2CCC(CCS(=O)(=O)c3ccc(S(C)(=O)=O)cc3)CC2)c2cc(F)cc(F)c2)cc1 [Table V Compound 7, 1-{(3R)-3-(3,5-difluorophenyl)-3-[4-(methylsulfonyl)phenyl]propyl}-4-(2-{[4-(methylsulfonyl)phenyl]sulfonyl}ethyl)piperidine]
2 nM	Cn1nnc(-c2ccc(S(=O)(=O)CCC3CCN(CC[C@H](c4ccc(S(C)(=O)=O)cc4)c4cc(F)cc(F)c4)CC3)cc2)n1 [Table V Compound 19, 1-{(3R)-3-(3,5-difluorophenyl)-3-[4-(methylsulfonyl)phenyl]propyl}-4-(2-{[4-(2-methyl-2H-tetrazol-5-yl)phenyl]sulfonyl}ethyl)piperidine]
